Assay results published in ChEMBL document CHEMBL4725331, “An investigative study of antitumor properties of a novel thiazolo[4,5-d]pyrimidine small molecule revealing superior antitumor activity with CDK1 selectivity and potent pro-apoptotic properties” (Bioorg Med Chem, 2020).

Assays:
PC-3 = assay: Antiproliferative activity against human PC-3 cells assessed as inhibition of cell growth measured after 48 hrs by SRB assay; type: functional
NCI-H322M [1] = assay: Antiproliferative activity against human NCI-H322M cells assessed as inhibition of cell growth at 10 uM measured after 48 hrs by SRB assay relative to control; type: functional
SK-MEL-28 = assay: Antiproliferative activity against human SK-MEL-28 cells assessed as inhibition of cell growth measured after 48 hrs by SRB assay; type: functional
BT-549 = assay: Antiproliferative activity against human BT-549 cells assessed as inhibition of cell growth measured after 48 hrs by SRB assay; type: functional
EKVX [2] = assay: Antiproliferative activity against human EKVX cells assessed as inhibition of cell growth measured after 48 hrs by SRB assay; type: functional
RPMI-8226 = assay: Antiproliferative activity against human RPMI-8226 cells assessed as inhibition of cell growth at 10 uM measured after 48 hrs by SRB assay relative to control; type: functional
SK-MEL-2 = assay: Antiproliferative activity against human SK-MEL-2 cells assessed as inhibition of cell growth measured after 48 hrs by SRB assay; type: functional
Hs-578T = assay: Antiproliferative activity against human Hs-578T cells assessed as inhibition of cell growth measured after 48 hrs by SRB assay; type: functional
HT-29 = assay: Antiproliferative activity against human HT-29 cells assessed as inhibition of cell growth measured after 48 hrs by SRB assay; type: functional
COLO 205 [3] = assay: Antiproliferative activity against human COLO 205 cells assessed as inhibition of cell growth at 10 uM measured after 48 hrs by SRB assay relative to control; type: functional
EKVX [4] = assay: Antiproliferative activity against human EKVX cells assessed as inhibition of cell growth at 10 uM measured after 48 hrs by SRB assay relative to control; type: functional
MOLT-4 = assay: Antiproliferative activity against human MOLT-4 cells assessed as inhibition of cell growth measured after 48 hrs by SRB assay; type: functional
SF-268 = assay: Antiproliferative activity against human SF-268 cells assessed as inhibition of cell growth measured after 48 hrs by SRB assay; type: functional
SN12C = assay: Antiproliferative activity against human SN12C cells assessed as inhibition of cell growth at 10 uM measured after 48 hrs by SRB assay relative to control; type: functional
NCI-H322M [5] = assay: Antiproliferative activity against human NCI-H322M cells assessed as inhibition of cell growth measured after 48 hrs by SRB assay; type: functional
COLO 205 [6] = assay: Antiproliferative activity against human COLO 205 cells assessed as inhibition of cell growth measured after 48 hrs by SRB assay; type: functional
HCT-116 [7] = assay: Induction of apoptosis in human HCT116 cells assessed as up regulation of caspase-8 expression by RT-PCR analysis relative to untreated control; type: functional
WI-38 = assay: Cell cycle arrest in human WI-38 cells assessed as accumulation in G0/G1 phase at IC50 concentration incubated for 48 hrs by propidium iodide staining based flow cytometry analysis (reference value: 57.68 %); settings: wi-38, 48 h
KM12 = assay: Antiproliferative activity against human KM12 cells assessed as inhibition of cell growth measured after 48 hrs by SRB assay; type: functional
NCI/ADR-RES [8] = assay: Antiproliferative activity against human NCI/ADR-RES cells assessed as inhibition of cell growth measured after 48 hrs by SRB assay; type: functional
SK-OV-3 = assay: Antiproliferative activity against human SK-OV-3 cells assessed as inhibition of cell growth at 10 uM measured after 48 hrs by SRB assay relative to control; type: functional
786-0 = assay: Antiproliferative activity against human 786-0 cells assessed as inhibition of cell growth at 10 uM measured after 48 hrs by SRB assay relative to control; type: functional
HCT-116 [9] = assay: Induction of apoptosis in human HCT-116 cells assessed as early apoptotic cells at IC50 incubated for 48 hrs by annexin-V FITC and propidium iodide staining based flow cytometry analysis (reference value: 1.67 %); type: functional
NCI/ADR-RES [10] = assay: Antiproliferative activity against human NCI/ADR-RES cells assessed as inhibition of cell growth at 10 uM measured after 48 hrs by SRB assay relative to control; type: functional
IGROV-1 = assay: Antiproliferative activity against human IGROV-1 cells assessed as inhibition of cell growth measured after 48 hrs by SRB assay; type: functional
HCT-116 [11] = assay: Cell cycle arrest in human HCT-116 cells assessed as accumulation in S phase phase at IC50 concentration incubated for 48 hrs by propidium iodide staining based flow cytometry analysis (reference value: 41.34 %); type: functional
RXF 393 = assay: Antiproliferative activity against human RXF 393 cells assessed as inhibition of cell growth at 10 uM measured after 48 hrs by SRB assay relative to control; type: functional
LOX IMVI = assay: Antiproliferative activity against human LOX IMVI cells assessed as inhibition of cell growth measured after 48 hrs by SRB assay; type: functional
HOP-92 = assay: Antiproliferative activity against human HOP-92 cells assessed as inhibition of cell growth measured after 48 hrs by SRB assay; type: functional
UACC-257 = assay: Antiproliferative activity against human UACC-257 cells assessed as inhibition of cell growth at 10 uM measured after 48 hrs by SRB assay relative to control; type: functional
DU-145 = assay: Antiproliferative activity against human DU-145 cells assessed as inhibition of cell growth at 10 uM measured after 48 hrs by SRB assay relative to control; type: functional
SF-539 = assay: Antiproliferative activity against human SF-539 cells assessed as inhibition of cell growth measured after 48 hrs by SRB assay; type: functional
T47D = assay: Antiproliferative activity against human T47D cells assessed as inhibition of cell growth measured after 48 hrs by SRB assay; type: functional
[12] = read-out: LC50 (the source's name)

SMILES: COc1ccc(-n2c(=S)sc3c(Cl)nc(C)nc32)c(OC)c1
- GI50 (PC-3): 2.4 µM
- TGI (PC-3): 5.89 µM
- CC50 (PC-3; [12]): 22.9 µM
- inhibition at 10 µM (NCI-H322M [1]): > 50%
- GI50 (SK-MEL-28): 2.19 µM
- TGI (SK-MEL-28): 4.57 µM
- CC50 (SK-MEL-28; [12]): 9.77 µM
- GI50 (BT-549): 2 µM
- TGI (BT-549): 4.27 µM
- CC50 (BT-549; [12]): 9.12 µM
- GI50 (EKVX [2]): 4.57 µM
- TGI (EKVX [2]): 17 µM
- CC50 (EKVX [2]; [12]): 43.6 µM
- inhibition at 10 µM (RPMI-8226): > 50%
- GI50 (SK-MEL-2): 2.04 µM
- TGI (SK-MEL-2): 3.98 µM
- CC50 (SK-MEL-2; [12]): 7.76 µM
- GI50 (Hs-578T): 2.63 µM
- TGI (Hs-578T): 7.76 µM
- CC50 (Hs-578T; [12]): > 100 µM
- GI50 (HT-29): 2.4 µM
- TGI (HT-29): 6.31 µM
- CC50 (HT-29; [12]): 57.5 µM
- inhibition at 10 µM (COLO 205 [3]): > 50%
- inhibition at 10 µM (EKVX [4]): > 50%
- GI50 (MOLT-4): 2.14 µM
- TGI (MOLT-4): 5.5 µM
- CC50 (MOLT-4; [12]): > 100 µM
- GI50 (SF-268): 2.19 µM
- TGI (SF-268): 5.25 µM
- CC50 (SF-268; [12]): 17 µM
- inhibition at 10 µM (SN12C): > 50%
- GI50 (NCI-H322M [5]): 2.51 µM
- TGI (NCI-H322M [5]): 6.46 µM
- CC50 (NCI-H322M [5]; [12]): 22.4 µM
- GI50 (COLO 205 [6]): 3.8 µM
- TGI (COLO 205 [6]): 13.2 µM
- CC50 (COLO 205 [6]; [12]): 47.9 µM
- fold change (FC) (HCT-116 [7]): 7.9
- Activity (WI-38): 54.45%
- GI50 (KM12): 3.31 µM
- TGI (KM12): 11.5 µM
- CC50 (KM12; [12]): 37.1 µM
- GI50 (NCI/ADR-RES [8]): 13.2 µM
- TGI (NCI/ADR-RES [8]): 72.4 µM
- CC50 (NCI/ADR-RES [8]; [12]): > 100 µM
- inhibition at 10 µM (SK-OV-3): > 50%
- inhibition at 10 µM (786-0): > 50%
- Activity (HCT-116 [9]): 5.38%
- inhibition at 10 µM (NCI/ADR-RES [10]): > 50%
- GI50 (IGROV-1): 1.95 µM
- TGI (IGROV-1): 3.98 µM
- CC50 (IGROV-1; [12]): 8.32 µM
- Activity (HCT-116 [11]): 30.1%
- inhibition at 10 µM (RXF 393): > 50%
- GI50 (LOX IMVI): 1.7 µM
- TGI (LOX IMVI): 3.16 µM
- CC50 (LOX IMVI; [12]): 6.03 µM
- GI50 (HOP-92): 2.04 µM
- TGI (HOP-92): 8.51 µM
- CC50 (HOP-92; [12]): 31.6 µM
- inhibition at 10 µM (UACC-257): > 50%
- inhibition at 10 µM (DU-145): > 50%
- GI50 (SF-539): 2.09 µM
- TGI (SF-539): 4.57 µM
- CC50 (SF-539; [12]): 10 µM
- GI50 (T47D): 6.46 µM
- TGI (T47D): 21.9 µM
- CC50 (T47D; [12]): 56.2 µM
